The Ki is the dissociation constant of the complex between target and ligand, obtained from inhibition or displacement.

Values joined by “and” are separate entries in the source; they are usually repeats but may differ in a detail not shown here. Equal entries are not always repeated. Bounds are passed on as bounds.

The target of this experiment is Histamine H1 receptor (Cavia porcellus, UniProt P31389).
Sequence of Histamine H1 receptor (P31389 whole entry): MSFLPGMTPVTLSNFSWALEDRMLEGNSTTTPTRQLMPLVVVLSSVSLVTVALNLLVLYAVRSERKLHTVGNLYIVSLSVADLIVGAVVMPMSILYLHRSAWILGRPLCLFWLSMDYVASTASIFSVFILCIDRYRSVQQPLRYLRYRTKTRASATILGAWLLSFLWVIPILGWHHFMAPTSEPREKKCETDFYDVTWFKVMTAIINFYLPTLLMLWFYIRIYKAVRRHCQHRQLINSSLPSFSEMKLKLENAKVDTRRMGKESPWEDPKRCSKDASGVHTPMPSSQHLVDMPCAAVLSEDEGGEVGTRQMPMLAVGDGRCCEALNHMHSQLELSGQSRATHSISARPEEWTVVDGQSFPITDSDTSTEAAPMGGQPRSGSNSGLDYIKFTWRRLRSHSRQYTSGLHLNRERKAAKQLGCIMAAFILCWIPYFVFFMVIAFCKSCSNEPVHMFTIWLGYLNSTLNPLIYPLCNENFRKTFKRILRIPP
For `Nc1nc2c(ncn2[C@@H]2O[C@H](COP(=O)(O)OP(=O)(O)OP(=O)(O)O)C(O)C2O)c(=O)[nH]1` (stereo partly drawn) [+ 1 mM GTP], the Ki is more than 10000 nM.
As for `Cc1ccc(/C(=C\CN2CCCC2)c2ccccn2)cc1` [Actahist], the figure is 0.93 nM and 0.69 nM; as for `O=C(O)C=CC(=O)Oc1ccc(Cl)cc1` [NSC_6445134], 98 nM and 80.1 nM; as for `CN(C)[C@@H]1Cc2ccccc2[C@H](c2ccccc2)C1` [cis-H2-PAT(+)], 53.8 nM and 77.7 nM.
As for `CN(C)C1Cc2ccccc2C(c2ccccc2)C1` (stereo not drawn) [cis-H2-PAT(+/-)], the figure is 10.9 nM and 7.87 nM and 1.53 nM and 1.37 nM; as for `CN(C)[C@H]1Cc2ccccc2[C@@H](c2ccccc2)C1` [cis-H2-PAT(-)], 3.92 nM and 4.91 nM.
As for `CN(C)[C@H]1Cc2ccccc2[C@H](c2ccccc2)C1` [trans-H2-PAT(+)], the figure is 23 nM and 11.5 nM; as for `CN(C)[C@@H]1Cc2ccccc2[C@@H](c2ccccc2)C1` [trans-PAT], 1.15 nM and 0.58 nM.

The values are drawn from BindingDB's records for doi:10.1124/jpet.302.1.328 (University of North Carolina at Chapel Hill, 2002).
